According to patent US20260027073A1, “USE OF SMALL-MOLECULE COMPOUND HAVING NAPHTHYLAMINE STRUCTURE” (HANGZHOU PHECDAMED CO., LTD., priority 2023, published 2026):

Legend:
[1] = system: myocardial infarction rats; test: Myocardial infarction by coronary artery ligation; assay type: in vivo, SD rats; details: TJ01-013 30 mg/kg, Entresto 10 mg/kg, oral, 4 weeks
Protocol: 180 g-200 g SD rats were anesthetized by chloral hydrate after fasting for 12 h, the hair from the mandible to the upper part of the abdominal cavity and the ventral surfaces of the limbs was removed cleanly, and they were fixed on the surgical table, firstly, a small incision of about 1.5 cm was made in the neck with a scalpel, and then the subcutaneous muscle layer was bluntly separated with surgical scissors to expose the trachea, and then the tracheal tube was intubated and connected to the animal respiratory machine. After sterilizing with iodophor, the skin was cut on the left side of the chest between the 3rd and 4th ribs, and the muscles were bluntly separated to expose the ribs. The 3rd rib was cut with surgical scissors, hemostatic forceps were used to clamp and break the cut rib, and an eyelid opener was placed to peel the pericardium. After the pericardium was cut, a cotton swab moistened with saline was used to gently pivot the heart to locate the left auricle and coronary arteries. A threaded suture needle was clamped with a microscopic needle holder, and passed through the myocardium from right to left at 2-3 mm below the left auricle to ligate the coronary artery. At the end of the ligation, the organs in the thoracic cavity were recovered with saline-soaked cotton swabs, and figure-of-eight sutures were applied to the third and fourth ribs. After the rib layer suture was completed, subcutaneous muscle layering suture was performed, and the skin was finally sutured. After dialing out the tracheal tube, the rats were closely observed whether they had spontaneous respiration or not, and if there was no respiration they should be immediately pressed on the chest cavity for cardiopulmonary resuscitation. The electrocardiograph was connected to measure the postoperative electrocardiogram. […] The drug was administered orally by gavage in a volume of 10 ml/kg, and the frequency of administration was once a day for 4 weeks, and then the rats were anesthetized for cardiac ultrasound.
The rats were anesthetized by intraperitoneal injection of sodium pentobarbital 40 mg/kg, and the limbs were fixed on a wooden board in supine position, and the board was tilted to the left at 30 degrees. The chest was shaved and a II lead ECG was connected. A ULTRAMARK 9 ultrasonic diagnostic instrument from ATL, USA was used with a wide bandwidth line array probe with a frequency of 10 MHz-5 MHz. The Doppler detection frequency was 6.0 MHz, the length of the probe was 38 mm, the gain of the instrument was fixedly set as 50 dB in the experiment, and the depth of the image was adjusted to 2.5 cm. The probe was placed on the left side of the sternum at 10-30 degrees from the midline of the sternum to display the parasternal left ventricular long-axis view, and the probe was rotated clockwise by 90 degrees to display the left ventricular view. Doppler flow measurements of the mitral and aortic valves were performed in the parasternal left ventricular long-axis view and the pulmonary artery long-axis view. Ultrasound measurement indexes included left ventricular end-diastolic internal diameter (LVDd), end-systolic internal diameters (LVDs), left ventricular ejection fraction EF, left ventricular short-axis shortening rate FS, and infarct size.

[2] = system: LPS-induced acute lung injury mice; test: LPS-induced acute lung injury; assay type: in vivo, C57BL/6J mice
Protocol: Male mice C57BL/6J aged 6-8 weeks and weighing 18-22 g were selected for the study. After fixing the mice, 50 μl of PBS was injected into the airways of the mice under direct laryngoscopic vision to form a control group, and 5 mg/kg of LPS (E.coil) was dissolved in 50 μl of PBS and dripped to form a model group. The experiments were divided into […], each having 6 mice, namely, NS group (control group, airway drip of 50 μl PBS), LPS group (model control group, airway drip of 50 μl LPS), LPS+10 mg/kg group (airway drip of 50 μl LPS and given 10 mg/kg TJ01-013 treatment), LPS+20 mg/kg group (airway drip of 50 μl LPS and given 20 mg/kg TJ01-013 treatment), LPS+30 mg/kg group (airway drip of 50 μl LPS and given 30 mg/kg TJ01-013 treatment), LPS+Sivelestat group (Positive control group, airway drip of 50 μl LPS and given 5 mg/kg Sivelestat treatment). All groups were administered […] by intraperitoneal injection in a volume of 200 μl 1 h and 7 h after airway drip, and the mice were euthanized 24 h later, bronchoalveolar lavage fluid (BALF) was taken, and the levels of inflammatory factors in the bronchoalveolar lavage fluid were detected and the changes in the transcriptional levels of tissue-associated inflammatory factors were observed. • (2) taking and observing of Bronchoalveolar lavage fluid (BALF)
Use chloral hydrate intraperitoneal injection to make mice die of rapid overdose anesthesia, place mice in supine position on the dissection table, fix the limbs, disinfect the skin of the neck of the mice with 75% ethanol, incise the skin along the midline of the neck, bluntly separate the subcutaneous connective tissues and muscles with hemostatic forceps, expose the trachea, separate connective tissues on both sides of the trachea and between the trachea and the esophagus, and free the trachea. Two surgical sutures about 20 cm long were threaded between the trachea and esophagus. A 24G intravenous cannula needle was inserted at a 30-degree angle from the connective tissue membrane between the thyroid cartilage and the cricoid cartilage, and the intravenous cannula needle was delivered in the direction of the tracheal eminence. A surgical suture placed between the tracheo-esophageal was ligated at the entry of the cannula into the trachea and at the distal end of the cannula, respectively, and tied as tightly as possible to secure the cannula and trachea. 0.8 ml of PBS was aspirated with a 1 ml syringe, and the syringe was connected to the inlet end of the intravenous cannula needle, and PBS was slowly injected into the trachea, stayed for 30 seconds and then was withdrawn back, and a milky white frothy liquid withdrawn back was visible, and the lavage was repeated three times, and the liquid was centrifuged at 1500 rpm/min for 10 min, and the supernatant was used for cytokine assay, and the cell precipitates were coated after resuspending with PBS for Giemsa staining and sorting and counting.
The levels of inflammatory factors (inflammatory factors including IL-6, CXCL1, CXCL2, etc.) in BALF supernatant were detected according to the instructions of the ELISA test kit.
The obtained cDNA was amplified on a 96-well PCR plate using a LightCycler 480 system, and the gene level was determined by using glyceraldehyde 3-phosphate dehydrogenase (GAPDH) as an internal standard.

[3] = TJ01-013 10, 20, 30 mg/kg, Sivelestat 5 mg/kg, FIG. 26
[4] = concentration-dependent for TJ01-013, FIG. 27

## O=C(O)C[S+]([O-])c1cc(NS(=O)(=O)c2ccc(Br)cc2)c2ccccc2c1O (stereo not drawn) [I-1]
[1]; FIG. 37
  infarct size: reduced
[1]; FIG. 38
  left ventricular end-diastolic diameter (LVDd): no significant effect
[1]; FIG. 39
  end-systolic diameter (LVDs): did not have a significant effect
[1]; FIG. 40
  left ventricular ejection fraction EF: significantly increased
[1]; FIG. 41
  left ventricular short-axis fractional shortening FS: significantly increased
[2]; FIG. 25
  number of macrophages in alveolar lavage fluid: no significant effect
  number of neutrophils in alveolar lavage fluid: significantly reduce
[2]; TJ01-013 20 mg/kg, FIG. 25
  total number of cells in alveolar lavage fluid, compared with positive control Sivelestat sodium: decreased to a better extent
[2]; [3]
  CXCL1 level in alveolar lavage fluid (ELISA): significantly decreased in a concentration-dependent manner
  CXCL2 level in alveolar lavage fluid (ELISA): significantly decreased in a concentration-dependent manner
  IL-6 level in alveolar lavage fluid (ELISA): significantly decreased in a concentration-dependent manner
[2]; after LPS, intraperitoneal TJ01-013, FIG. 25
  total number of cells in alveolar lavage fluid: decreased
[2]; [4]
  CXCL1 transcript level in lung tissue: significantly decreased
  CXCL2 transcript level in lung tissue: significantly decreased
  IL-6 transcript level in lung tissue: significantly decreased
